The text below walks through data of US8946142B2, “Beta-arrestin effectors and compositions and methods of use thereof” (Trevena, Inc., priority 2012, dated 2015).

What all share (format): cell-based
Assay [1] concerns the target T1, human AT1R (Homo sapiens, UniProt P30556).
T1 sequence (P30556 1-359): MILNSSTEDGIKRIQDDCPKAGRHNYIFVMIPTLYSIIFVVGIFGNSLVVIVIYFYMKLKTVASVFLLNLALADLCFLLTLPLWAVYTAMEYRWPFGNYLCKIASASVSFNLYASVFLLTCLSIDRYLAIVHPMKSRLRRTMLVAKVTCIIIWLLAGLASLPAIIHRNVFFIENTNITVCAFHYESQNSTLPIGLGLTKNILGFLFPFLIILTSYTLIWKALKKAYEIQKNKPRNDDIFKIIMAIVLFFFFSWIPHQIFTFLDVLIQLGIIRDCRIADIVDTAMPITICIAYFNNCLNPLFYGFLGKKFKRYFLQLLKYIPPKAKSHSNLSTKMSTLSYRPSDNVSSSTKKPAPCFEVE
The assay is described as follows: beta-arrestin2 recruitment assay (PathHunter), human AT1R. As to conditions: for Emax: 1 h, read-out: Span (relative to hAngII). The method, then: (§1) The proximal event in β-arrestin function mediated by GPCRs is recruitment to receptors following ligand binding and receptor phosphorylation by GRK's. Thus, the measure of β-arrestin recruitment was used to determine ligand efficacy for β-arrestin function.
(§2) B-arrestin-2 recruitment to the human and rat angiotensin 2 type 1 receptor (human AT1R and rat AT1aR, respectively) was measured with the PathHunter™ μl-arrestin assay (DiscoveRx Corporation, Fremont Calif.). Cells, plasmid(s), and detection reagent(s) were purchased from DiscoveRx, and assays were performed per manufacturer's instructions. Human AT1R and rat AT1aR were cloned into the pCMV-ProLink vector, verified by sequencing, and transfected into PathHunter β-arrestin HEK293 cells. Stably transfected clonal cell lines were selected with Hygromycin and G418. These clonal cell lines were used for all experiments.
(§3) For assays, 4,000-8,000 cells were seeded per well in 384-well microplates “HiBase” small-volume plate in volumes of 20 uL and grown overnight in the incubator (37° C., 5% CO2, saturated humidity). Peptides were dissolved in DMSO to a concentration of 10 mM. Peptides were then further diluted in assay buffer (Hank's balanced salt solution with 20 mM HEPES) to add peptide to the cells to reach final concentrations ranging from 100 μM to 1 pM. Cells were then incubated for 60 minutes at 37° C. in 5% CO2, followed by addition of 2 μL of PathHunter Detection Reagent to each well. The microplates were then incubated at room temperature for 60 minutes, and then luminescence was measured using a PHERAstar Plus microplate reader from BMG Labtech. B-arrestin-2 recruitment to receptors was measured as relative luminescence intensity expressed in arbitrary units.

For assay [2], the target named is T1, human AT1R. Nature of the assay: IP1 accumulation assay (IP1 G-protein assay), human AT1R. As to conditions: for Emax: read-out: Span (relative to hAngII). The protocol: (§4) A secondary measure of G protein coupling efficacy was also performed. IP3 is generated by activation of phospholipase C by Gα-q. IP3 is degraded to IP1, which can be forced to accumulate in cells by blocking degradation with lithium chloride. Thus we measured accumulation of IP1 to determine ligand efficacy for G protein activation.
(§5) IP1 accumulation generated by human and rat angiotensin 2 type 1 receptor (human AT1R and rat AT1aR, respectively) was measured with IP-One Tb kits purchased from Cisbio and used per the manufacturer's instructions. Clonal stably transfected cell lines expressing human AT1TR or rat AT1aR were used for all experiments.
(§6) For assays, 4,000-8,000 cells were seeded per well in 384-well small-volume microplates “HiBase” small-volume plate in volumes of 20 uL and allowed to grow overnight at 37° C. in 5% CO2. Cell growth media was then replaced with stimulation buffer supplied by Cisbio containing 50 mM lithium chloride. […] For agonist detection, peptides were then further diluted in stimulation buffer to add peptide to the cells to reach final concentrations ranging from 100 uM to 1 pM. Following addition of peptides, cells were incubated at 37° C. in 5% CO2 for 30 minutes and then lysed with 4 uL of pre-mixed HTRF IP-One reagents diluted per manufacturer's instructions (Cisbio). Microplates were incubated for 60-90 minutes at room temperature and then time-resolved fluorescence intensities were measured using a PHERAstar Plus microplate reader from BMG Labtech. IP1 accumulation was measured as change in ratio of time-resolved fluorescent intensities measured at 665 nm and 620 nm.

Assay [3] deals with T2, rat AT1aR (Rattus norvegicus, UniProt P25095).
T2 sequence (P25095 1-359): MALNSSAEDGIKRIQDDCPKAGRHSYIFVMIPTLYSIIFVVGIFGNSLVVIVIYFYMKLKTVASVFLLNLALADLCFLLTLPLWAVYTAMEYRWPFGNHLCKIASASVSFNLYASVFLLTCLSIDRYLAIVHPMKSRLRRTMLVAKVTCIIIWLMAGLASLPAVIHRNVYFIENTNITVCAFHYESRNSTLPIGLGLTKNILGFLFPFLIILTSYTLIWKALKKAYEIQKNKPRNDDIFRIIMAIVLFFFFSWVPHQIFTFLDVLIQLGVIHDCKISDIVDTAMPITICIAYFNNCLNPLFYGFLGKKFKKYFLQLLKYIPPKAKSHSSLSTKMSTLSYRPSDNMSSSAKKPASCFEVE
Nature of the assay: beta-arrestin2 recruitment assay (PathHunter), rat AT1aR. The note with it: for Emax: 1 h, read-out: Span (relative to hAngII). The protocol:
as §1, §2, §3
A general note: Recruitment of arrestin is a read-out of receptor activation apart from second messengers.

For assay [4], the target named is T2, rat AT1aR. The assay is described as follows: IP1 accumulation assay (IP1 G-protein assay), rat AT1aR. The protocol: as §4, §5, §6

The structures appear in SMILES notation. Where a SMILES comes first, the peptide text is derived from it. [ ]: non-standard residue; d: D form. Ac6c = NC1(C(=O)O)CCCCC1; Aib = CC(C)(N)C(=O)O; Sar = CNCC(=O)O Bounds are passed on as bounds.

Regarding `CC[C@H](C)[C@H](NC(=O)[C@@H]1CCCN1C(=O)[C@H](Cc1c[nH]cn1)NC(=O)[C@@H]1CCCN1C(=O)[C@H](Cc1ccc(O)cc1)NC(=O)[C@@H](NC(=O)[C@H](CCCNC(=N)N)NC(=O)CNC)C(C)C)C(=O)O` [SEQ ID NO: 4, Sar-Arg-Val-Tyr-Pro-His-Pro-Ile] (H-[Sar]RVYPHPI-OH; N-terminus and C-terminus assumed), the Emax at human AT1R [1] was less than 101%; on human AT1R [2] it was less than 103%; on rat AT1aR [3], less than 105%.
For `CNCC(=O)N[C@@H](CCSC)C(=O)N[C@H](C(=O)N[C@@H](Cc1ccc(O)cc1)C(=O)NC1(C(=O)N[C@@H](Cc2c[nH]cn2)C(=O)N2CCC[C@H]2C(=O)N[C@@H](C)C(=O)O)CCCCC1)C(C)C` [SEQ ID NO: 45, Sar-Met-Val-Tyr-cyHex-His-Pro-Ala] (H-[Sar]MVY[Ac6c]HPA-OH; N-terminus and C-terminus assumed) the same measures were less than 101%, less than 103% and less than 105%.
Take `CNCC(=O)N[C@@H](CCCNC(=N)N)C(=O)N[C@H](C(=O)N[C@@H](Cc1ccc(O)cc1)C(=O)NC(C)(C)C(=O)N[C@@H](Cc1c[nH]cn1)C(=O)N1CCC[C@H]1C(=O)N[C@H](C(=O)O)C(C)C)C(C)C` [SEQ ID NO: 33, Sar-Arg-Val-Tyr-AA01-His-Pro-Val] (H-[Sar]RVY[Aib]HPV-OH): the values for the Emax at human AT1R [1], at human AT1R [2] and at rat AT1aR [3] were less than 101%, less than 103% and less than 105%, respectively. The EC50 at human AT1R [1] (read-out: EC50) was more than 3.2 nM; on human AT1R [1] (read-out: pEC50 (converted)), more than 3.16 nM; at human AT1R [2] (read-out: EC50), more than 1.3 nM; on human AT1R [2] (read-out: pEC50 (converted)) it was more than 0.631 nM; on rat AT1aR [3] (read-out: EC50), more than 3.2 nM; at rat AT1aR [3] (read-out: pEC50 (converted)) it was more than 3.16 nM.
With `CNCC(=O)N[C@@H](CCCNC(=N)N)C(=O)N[C@H](C(=O)N[C@@H](Cc1ccc(O)cc1)C(=O)NC1(C(=O)N[C@@H](Cc2c[nH]cn2)C(=O)N2CCC[C@H]2C(=O)N[C@@H](CC(=O)O)C(=O)O)CCCCC1)C(C)C` [SEQ ID NO: 44, Sar-Arg-Val-Tyr-cyHex-His-Pro-Asp] (H-[Sar]RVY[Ac6c]HPD-OH), the results for the Emax at human AT1R [1], at rat AT1aR [3] and at rat AT1aR [4] (read-out: Span (relative to hAngII)) were less than 101%, less than 105% and less than 104%, respectively. Besides, the EC50 is more than 3.2 nM at human AT1R [1] (read-out: EC50); more than 3.16 nM at human AT1R [1] (read-out: pEC50 (converted)); more than 3.2 nM at rat AT1aR [3] (read-out: EC50); more than 3.16 nM on rat AT1aR [3] (read-out: pEC50 (converted)); more than 0.6 nM on rat AT1aR [4] (read-out: EC50); more than 0.631 nM at rat AT1aR [4] (read-out: pEC50 (converted)).
In the case of `CNCC(=O)N[C@@H](CCCNC(=N)N)C(=O)N[C@H](C(=O)N[C@@H](Cc1ccc(O)cc1)C(=O)NC1(C(=O)N[C@@H](Cc2c[nH]cn2)C(=O)N2CCC[C@H]2C(=O)N[C@@H](CCCNC(=N)N)C(=O)O)CCCCC1)C(C)C` [SEQ ID NO: 42, Sar-Arg-Val-Tyr-cyHex-His-Pro-Arg] (H-[Sar]RVY[Ac6c]HPR-OH), the Emax was less than 101% on human AT1R [1], less than 103% on human AT1R [2] and less than 105% at rat AT1aR [3]. Besides, the EC50 at human AT1R [1] (read-out: EC50) is more than 3.2 nM; on human AT1R [1] (read-out: pEC50 (converted)), more than 3.16 nM; on human AT1R [2] (read-out: EC50) it was more than 1.3 nM; at human AT1R [2] (read-out: pEC50 (converted)) it was more than 0.631 nM; on rat AT1aR [3] (read-out: EC50), more than 3.2 nM; on rat AT1aR [3] (read-out: pEC50 (converted)) it was more than 3.16 nM.
With `CNCC(=O)N[C@@H](CCCNC(=N)N)C(=O)N[C@H](C(=O)N[C@@H](Cc1ccc(O)cc1)C(=O)NC1(C(=O)N[C@@H](Cc2c[nH]cn2)C(=O)N2CCC[C@H]2C(=O)NC)CCCCC1)C(C)C` [SEQ ID NO: 49, Sar-Arg-Val-Tyr-cyHex-His-Pro-NH-methyl] (H-[Sar]RVY[Ac6c]HP-NHMe), the results for the Emax at human AT1R [1] and on rat AT1aR [3] were less than 101% and less than 105%, respectively. Also, the EC50 on human AT1R [1] (read-out: EC50) is more than 3.2 nM; at human AT1R [1] (read-out: pEC50 (converted)), more than 3.16 nM; on rat AT1aR [3] (read-out: EC50) it was more than 3.2 nM; at rat AT1aR [3] (read-out: pEC50 (converted)), more than 3.16 nM.
